Data: publication PMC11520566, “Discovery of pyrazole-based analogs as CDK2 inhibitors with apoptotic-inducing activity: design, synthesis and molecular dynamics study” (RSC Advances, 2024)
“And” between values parts separate entries of the source, which are not always exact repeats. Equal entries are not always repeated.

Columns and labels:
[1] = tested on: CDK2; details: cited from earlier work; for IC50: CDK2
[2] = target: T1, CDK2/cyclin A2 (Homo sapiens, UniProt P24941); assay: In vitro CDK2/cyclin A2 enzyme inhibition assay (ADP-Glo); format: biochemical; details: for IC50: n = 3, read-out: IC50 against CDK2/cyclin A2; for Relative activity: supplement S1, DMSO = 100, screen at 50 μM; for percentage enzyme activity: at 50 μM
T1 construct: purchased Promega
Experimental: The studied pyrazoles 2a–g, 4, 7a–d, 8a and b, 9, and 10 were assessed for their in vitro CDK2/cyclin A2 enzyme inhibition assay at a concentration of 50 μM using the Promega CDK2/cyclinA2 kinase enzyme system coupled with the ADP-Glo assay.[32,33] The percentage enzyme activity was the lowest for five compounds, namely 4, 7a, 7d, 8a, and 9 with values of 24.7%, 17.5%, 11.5%, 27.1% and 14.5%, respectively.
The in vitro assay of CDK2/cyclin A2 protein kinase was carried out on all the synthesized compounds. The kinase assay was performed in a 96-well white plate with a reaction volume of […]. The reaction was performed in four steps as follows: 2.5 μL of the test compounds or 5% DMSO and 5 μL of CDK2/cyclin A2 enzyme (1.6 ng) was added, and then incubated at room temperature for 30 min. Then, 5 μL of 50 μM ATP. 0.1 μg μL^−1 histone H1 was added and incubated for 10 min. The reaction was stopped by adding 12.5 μL of ADP-Glo™ Reagent and incubated for 40 min. Then 25 μL of kinase detection reagent was added to each well and incubated for 60 min before detection with luminescence (Integration time 0.5–1 s).[25,32,33]

[3] = tested on: CDK 1, 2, 4, 6 and 9 isoforms; parameters: method as in PMID 18656911; details: range over CDK 1, 2, 4, 6 and 9 isoforms; cited from earlier work
[4] = tested on: NCI 60 cancer cell lines; assay: NCI 60 single dose screen, mean over full panel; format: cell-based, human; details: mean over NCI 60 cell lines; single dose 10 μM
Experimental: (§1) The newly synthesized pyrazoles 2a–g, 7a–d, 8a and b, 9, and 10 were submitted to the National Cancer Institute (NCI) Developmental Therapeutics Program (http://www.dtp.nci.nih.gov) for assessment of their potential antiproliferative activity against a panel of NCI 60 cancer cell lines. All compounds were approved for screening against the approved 60 cancer cell lines at a single dose of 10 μM. The human cancer cell lines were derived from 9 variant cancer types including leukemia, melanoma, lung, colon, CNS, ovarian, renal, prostate and breast cancers. The results are presented as percentage of growth inhibition (GI%) of the screened compounds against the full panel of cell lines.
(§2) Under sterile conditions, the cell lines were grown in RPMI 1640 media (Gibco, NY, USA) supplemented with 10% fetal bovine serum (Biocell, CA, USA), and […] cell/mL was used to test the growth inhibition activity of the synthesized compounds. The compounds with concentrations ranging from 0.01 to 100 μM were prepared in phosphate buffer saline. Each compound was initially solubilized in dimethyl sulfoxide (DMSO); however, each final dilution contained less than 1% DMSO. Solutions of different concentrations (0.2 mL) were pipetted into the separate well of a microtiter tray in duplicate. Cell culture (1.8 mL) containing a cell population of […] cells per mL was pipetted into each well. Controls, containing only phosphate buffer saline and DMSO at identical dilutions, were also prepared in the same manner. These cultures were incubated in a humidified incubator at 37 °C. The incubator was supplied with 5% CO2 atmosphere. After 48 h, the cells in each well were diluted 10 times with saline and counted using a Coulter counter. The counts were corrected for the dilution.[34]

[5] = tested on: MCF7; assay: NCI 60 single dose screen, Breast cancer; format: cell-based, human; details: single dose 10 μM
Experimental: as §1, §2

[6] = tested on: MDA-MB-468; assay: NCI 60 single dose screen, Breast cancer; format: cell-based, human; details: single dose 10 μM
Experimental: as §1, §2

[7] = tested on: CCRF-CEM; assay: NCI 60 single dose screen, Leukemia; format: cell-based, human; details: single dose 10 μM
Experimental: as §1, §2

[8] = tested on: MALME-3M; assay: NCI 60 single dose screen, Melanoma; format: cell-based, human; details: single dose 10 μM
Experimental: as §1, §2

[9] = tested on: SK-MEL-2; assay: NCI 60 single dose screen, Melanoma; format: cell-based, human; details: single dose 10 μM
Experimental: as §1, §2

[10] = tested on: T-47D; assay: NCI 60 single dose screen, Breast; format: cell-based, human; details: single dose 10 μM
Experimental: as §1
Under sterile conditions, the cell lines were grown in RPMI 1640 media (Gibco, NY, USA) supplemented with 10% fetal bovine serum (Biocell, CA, USA), and […] cell/mL was used to test the growth inhibition activity of the synthesized compounds. The compounds with concentrations ranging from 0.01 to 100 μM were prepared in phosphate buffer saline. Each compound was initially solubilized in dimethyl sulfoxide (DMSO); however, each final dilution contained less than 1% DMSO. Solutions of different concentrations (0.2 mL) were pipetted into the separate well of a microtiter tray in duplicate. […] After 48 h, the cells in each well were diluted 10 times with saline and counted using a Coulter counter. […]

[11] = tested on: HCT-116 cell line; assay: MTT cell viability assay; format: cell-based; details: Homo sapiens, read-out: IC50 (cytotoxicity, MTT)
[12] = tested on: CDK2; assay: Western blot of CDK2 expression in HCT-116 cells; format: cell-based; details: 1 μM, 48 h, vs vehicle treated cells
Excerpt: The method of sodium dodecyl sulfate polyacrylamide gel electrophoresis (SDS-PAGE) is employed to separate proteins based on their size. When combined with western blotting (immunoblotting), both techniques are commonly used to identify the presence and/or relative abundance of a specific protein within a sample containing a complex mixture of proteins.[36] In this process, each sample's total protein content is loaded onto a gel and separated by electrophoresis, allowing proteins to migrate through the gel matrix under the influence of an electric current. To facilitate protein migration, the proteins are initially denatured and given a negative charge by exposure to a detergent like SDS. A molecular weight marker with known-sized bands assists in identifying proteins of interest. […] Typically, the secondary antibody is linked to an enzyme that generates luminescence upon reacting with its substrate. The intensity of the luminescence, directly correlating with the amount of protein that interacted with the antibody, is captured by a Bio-Rad Imager.[36] […]
HCT-116 cells were treated with either 3 μM of compound 4 and 1 μM of compound 9 and incubated 48 h. The cells were lysed by 1× RIPA buffer containing protease and phosphatase inhibitors to quantify the protein concentration by BCA protein assay. […]

[13] = in vitro; details: human

Molecule | Relative activity [2] | melting point [°C] | further results
Nc1n[nH]c(N)c1/N=N/c1ccc(O)cc1 [CAN508 (III)] | – | – | IC50 [1]: 0.35 µM
COc1ccc(C(=O)Nc2[nH]nc(Nc3ccccc3)c2C#N)cc1 [Compound 8b, N-(4-Cyano-3-(phenylamino)-1H-pyrazol-5-yl)-4-methoxybenzamide] | 27.1 | 233 to 235 | IC50 [2]: 18.7 µM
COc1ccc(NN=C2C(=O)NN=C2Nc2ccccc2)cc1 [Compound 2f, 4-(2-(4-Methoxyphenyl)hydrazono)-5-(phenylamino)-2,4-dihydro-3H-pyrazol-3-one] | 62.1 | 240 to 242 | mean GI% [4]: 10.24%
NC(=O)c1ccc(-c2ccc(F)c(C(=O)Nc3c[nH]nc3C(=O)Nc3ccc(F)cc3)c2F)cn1 [DC-K2in212 (IV)] | – | – | IC50 [1]: 0.295 µM; selectivity against CDK2 over CDK1 [1]: 17 fold
O=C1NN=C(Nc2ccccc2)C1=NNc1ccc(F)cc1 [Compound 2b, 4-(2-(4-Fluorophenyl)hydrazono)-5-(phenylamino)-2,4-dihydro-3H-pyrazol-3-one] | 55.6 | 239 to 240 | GI% [5]: 86.1%; GI% [6]: 72.25%
O=C1NN=C(Nc2ccccc2)C1=NNc1ccc(Cl)cc1 [Compound 2c, 4-(2-(4-Chlorophenyl)hydrazono)-5-(phenylamino)-2,4-dihydro-3H-pyrazol-3-one] | 59.3 | 249 to 251 | GI% [5]: 77.1%
CN(C)c1ccc(C=Nc2[nH]nc(Nc3ccccc3)c2C#N)cc1 [Compound 7d, 5-((4-(Dimethylamino)benzylidene)amino)-3-(phenylamino)-1H-pyrazole-4-carbonitrile] | 11.5 | 284 to 285 | percentage enzyme activity [2]: 11.5%; IC50 [2]: 1.47 µM
CC(=O)c1ccc(NN=C2C(=O)NN=C2Nc2ccccc2)cc1 [Compound 2g, 4-(2-(4-Acetylphenyl)hydrazono)-5-(phenylamino)-2,4-dihydro-3H-pyrazol-3-one] | 59.5 | 265 to 267 | –
O=C1NN=C(Nc2ccccc2)C1=NNc1ccccc1 [Compound 2a, 5-(Phenylamino)-4-(2-phenylhydrazono)-2,4-dihydro-3H-pyrazol-3-one] | 51.4 | 215 to 217 | GI% [5]: 73.8%
4-Chloro-N-(4-cyano-3-(phenylamino)-1H-pyrazol-5-yl)benzamide [Compound 8a] | 56.4 | – | percentage enzyme activity [2]: 27.1%
N#Cc1c(Nc2ccccc2)n[nH]c1N=Cc1ccc(F)cc1 [Compound 7a, 5-((4-Fluorobenzylidene)amino)-3-(phenylamino)-1H-pyrazole-4-carbonitrile] | 42.3 | 265 to 267 | IC50 [2]: 2 µM and 2.01 µM
N#Cc1c(Nc2ccccc2)n[nH]c1NCc1ccccc1 [Compound 9, 5-(benzylamino)-3-(phenylamino)-1H-pyrazole-4-carbonitrile] | 14.5 | 136 to 137 | percentage enzyme activity [2]: 14.5%; IC50 [2]: 0.96 µM; GI% [7]: 81.65%; GI% [8]: 78.10%; GI% [9]: 79.33%; GI% [10]: 82.76%; mean GI% [4]: 65.90%; IC50 [11]: 10 µM; expression of CDK-2 (western blot) [12]: inhibitions in the expression of CDK-2; IC50 [13]: 56.8 µM
CC(=O)N(C(C)=O)c1[nH]nc(Nc2ccccc2)c1C#N [Compound 10, N-acetyl-N-(4-cyano-3-(phenylamino)-1H-pyrazol-5-yl)acetamide] | 49.9 | 173 to 175 | –
Cc1ccc(NN=C2C(=O)NN=C2Nc2ccccc2)cc1 [Compound 2e, 5-(Phenylamino)-4-(2-(p-tolyl)hydrazono)-2,4-dihydro-3H-pyrazol-3-one] | 56.6 | 251 to 253 | mean GI% [4]: 6.87%
5-((4-Methoxybenzylidene)amino)-3-(phenylamino)-1H-pyrazole-4-carbonitrile [Compound 7c] | 68.6 | – | GI% [5]: 79.41%
O=C1NN=C(Nc2ccccc2)C1=NNc1ccc(O)cc1 [Compound 2d, 4-(2-(4-Hydroxyphenyl)hydrazono)-5-(phenylamino)-2,4-dihydro-3H-pyrazol-3-one] | 40.2 | 257 to 259 | mean GI% [4]: 27.12%
N#Cc1c(Nc2ccccc2)n[nH]c1N=Cc1ccc(Cl)cc1 [Compound 7b, 5-((4-Chlorobenzylidene)amino)-3-(phenylamino)-1H-pyrazole-4-carbonitrile] | 70.7 | 273 to 275 | –
